Where “and” joins values, the source holds several entries; their conditions need not be identical. Equal entries are not always repeated. Where two headings read alike, the source gives them in different places.
Columns and labels:
Type in all cases: cell-based
[1] = test system: QS-controlled luxCDABE operon; conditions: for RLU: Strain AH371
[2] = test system: qrr4
[3] = test system: QS-controlled luxCDABE operon; conditions: for RLU: PluxPQ-CqsS::3XFLAG LuxS-CqsA-
[4] = test system: hapA
[5] = test system: CqsS; conditions: for CqsS Dimers / Relative dimers, Final experimental replicates / Relative dimers (CqsS, normalized to WT Ave): LuxS-CqsA-, AI-2 1 μM, CAI-1 5 μM; for CqsS Dimers / Relative dimers (CqsS, normalized to WT Ave): single replicates

SMILES: C[C@]12OC[C@H](O)[C@@]1(O)O[B-](O)(O)O2 [AI-2, (2S, 4S)-2-methyl-2,3,3,4-tetrahydroxytetrahydrofuran borate]
- Light production ([1]; LuxS-CqsA- +AI-2 1 μM, OD600 0.0275): 5854546 RLU
- Light production ([1]; LuxS-CqsA- +AI-2 1 μM, OD600 0.0589): 5025467 RLU
- Light production ([1]; LuxS-CqsA- +AI-2 1 μM, OD600 0.2147): 1280857 RLU
- Light production ([1]; LuxS-CqsA- +AI-2 1 μM, OD600 0.4541): 1704470 RLU
- Light production ([1]; LuxS-CqsA- +AI-2 1 μM, OD600 1.201): 1856786 RLU
- Light production ([1]; LuxS-CqsA- +AI-2 1 μM, OD600 1.481): 34976370 RLU
- Light production ([1]; LuxS-CqsA- +AI-2 1 μM, OD600 1.867): 25388320 RLU
- Light production ([1]; LuxS-CqsA- +AI-2 1 μM, OD600 3.776): 12473520 RLU
- Light production ([1]; LuxS-CqsA-, AI-2 1 μM, CAI-1 5 μM, OD600 0.005): 108432 RLU
- RLU ([1]; agonist 0.0476837 nM): 2.35E+03 RLU and 4.30E+03 RLU and 4.28E+03 RLU
- RLU ([1]; agonist 0.762939 nM): 2.47E+03 RLU and 4.79E+03 RLU and 4.30E+03 RLU
- RLU ([1]; agonist 3.05176 nM): 2.44E+03 RLU and 2.42E+03 RLU and 2.17E+03 RLU
- RLU ([1]; agonist 12.207 nM): 2.38E+03 RLU and 4.73E+03 RLU and 4.30E+03 RLU
- RLU ([1]; agonist 48.8281 nM): 9.41E+03 RLU and 7.14E+03 RLU and 8.89E+03 RLU
- RLU ([1]; agonist 195.312 nM): 2.21E+04 RLU and 3.23E+04 RLU and 2.62E+04 RLU
- RLU ([1]; agonist 781.25 nM): 6.41E+04 RLU and 4.85E+04 RLU and 5.29E+04 RLU
- RLU ([1]; agonist 3125 nM): 6.25E+04 RLU and 6.51E+04 RLU and 5.68E+04 RLU
- RLU ([1]; agonist 12500 nM): 7.03E+04 RLU and 7.29E+04 RLU and 6.20E+04 RLU
- increase in light production ([1]; saturating autoinducer, HCD, vs untreated ΔcqsA ΔluxS): 100 fold
- RLU relative to Average WT ([2]; LuxS-CqsA- strain + autoinducer, Average WT 115335416.84): 29.34 and 29.68 and 31.98
- RLU, average per biological replicate (Totals) ([2]; LuxS-CqsA- strain + autoinducer, Rep 1-3): 3.38E+09 RLU and 3.42E+09 RLU and 3.69E+09 RLU
- reduction of qrr4-luxCDABE expression ([2]; saturating autoinducer, ΔcqsA ΔluxS mutant): 2 fold
- RLU ([3]; OD600 0.0532): 1.35E+07 RLU
- RLU ([3]; OD600 0.2928): 9.01E+07 RLU
- RLU ([3]; OD600 0.826): 1.12E+09 RLU
- RLU ([3]; OD600 1.094): 3.16E+09 RLU
- RLU ([3]; OD600 1.626): 2.09E+10 RLU
- RLU ([3]; OD600 2.281): 2.23E+10 RLU
- QS response when cqsS is under the luxPQ promoter ([3]; S9B Fig): caused premature induction of QS
- increase in hapA expression ([4]; LuxQ+ AI-2- strain (ΔcqsS ΔcqsR ΔvpsS ΔluxS)): 27 fold
- increase in hapA expression ([4]; ΔcqsA ΔluxS strain, HCD): 4 fold
- Relative dimers, Average of 111816 reps ([5]; HCD): 0.8076 and 0.9392
- CqsS Dimers ([5]; HCD (OD600 = 2.0)): 120.316 and 41.5193 and 39.7812 and 190.837 and 226.59 and 73.4627 and 88.226 and 103.067
- Relative dimers, Final experimental replicates ([5]; HCD): 0.8076 and 0.9392 and 0.977 and 1.14 and 0.4129 and 0.3956
- Relative dimers (CqsS, normalized to WT Ave) ([5]; HCD): 0.7384 and 0.8768 and 0.8534 and 1.025 and 0.977 and 1.14 and 0.4129 and 0.3956
- Relative dimers, Average of 111816 reps ([5]; LCD): 1.105 and 0.8147
- CqsS Dimers ([5]; LCD (OD600 = 0.2)): 53.516 and 13.7214 and 12.1436 and 82.1482 and 72.8907 and 15.3978 and 28.2649 and 41.282
- Relative dimers, Final experimental replicates ([5]; LCD): 1.105 and 0.8147 and 1.157 and 1.5 and 0.8624 and 0.7633
- Relative dimers (CqsS, normalized to WT Ave) ([5]; LCD): 1.171 and 1.039 and 0.5746 and 1.055 and 1.157 and 1.5 and 0.8624 and 0.7633
- CqsS protein levels ([5]; ΔcqsA ΔluxS mutant, LCD and HCD): increased CqsS protein levels to nearly that present in the WT

Source: publication PMC5467912, “Asymmetric regulation of quorum-sensing receptors drives autoinducer-specific gene expression programs in Vibrio cholerae” (PLoS Genetics, 2017)
